Source: ChEMBL document CHEMBL4837216, “Polymyxin B-inspired non-hemolytic tyrocidine A analogues with significantly enhanced activity against gram-negative bacteria: How cationicity impacts cell specificity and antibacterial mechanism” (Eur J Med Chem, 2021)
≈ marks a conversion by molar mass, not a printed value. Calls of active or inactive are those of the source. The calls are words filed in the database; no cut-off is given here. Where a SMILES comes first, the peptide text is derived from it. [ ]: non-standard residue; d: D form. Orn = NCCC[C@H](N)C(=O)O

Tests used:
Cell membrane [1] = assay: Induction of cytoplasmic membrane permeabilization in Staphylococcus aureus at 0.06 to 8 times MIC measured for 60 mins by propidium iodide dye based fluorescence assay; format: subcellular
Lipid bilayer [2] = assay: Binding affinity to eukaryotic cell membrane mimic DOPC/Cholesterol (3:1) large unilamellar vesicles assessed as calcein leakage measured after 30 mins fluorescence based assay
Staphylococcus aureus [3] = assay: Antibacterial activity against methicillin resistant Staphylococcus aureus assessed as inhibition of bacterial growth measured after 24 hrs by turbidity based analysis; format: functional
Cell membrane [4] = assay: Induction of cytoplasmic membrane permeabilization in Staphylococcus aureus assessed as increase in red fluorescence intensity at 2 times MIC measured after 60 mins by fluorescence microscopy
Escherichia coli [5] = assay: Antibacterial activity against Escherichia coli ATCC 8739 assessed as inhibition of bacterial growth measured after 24 hrs by turbidity based analysis; format: functional
Escherichia coli [6] = assay: Antibacterial activity against Escherichia coli ATCC 8739 infected in C57BL/6 mouse peritonitis sepsis model assessed as bacterial load in kidney at 10 mg/kg, ip administered for 12 hrs (reference value: 5.15 +/-0.4 logCFU/gm); format: functional
Escherichia coli [7] = assay: Antibacterial activity against Escherichia coli ATCC 8739 infected in C57BL/6 mouse peritonitis sepsis model assessed as reduction in bleeding with normal shaped alveoli at 10 mg/kg, ip administered for 12 hrs by Hematoxylin-Eosin staining based microscopic analysis; format: functional, organism-based
Escherichia coli [8] = assay: Antibacterial activity against Escherichia coli ATCC 8739 infected in C57BL/6 mouse peritonitis sepsis model assessed as reduction in inflammatory cell infiltration in lung at 10 mg/kg, ip administered for 12 hrs by Hematoxylin-Eosin staining based microscopic analysis; format: functional, organism-based
Staphylococcus aureus [9] = assay: Antibacterial activity against Staphylococcus aureus ATCC 6538 assessed as inhibition of bacterial growth measured after 24 hrs by turbidity based analysis; format: functional
Staphylococcus aureus [10] = assay: Antibacterial activity against Staphylococcus aureus ATCC 6538 assessed as inhibition of bacterial growth measured after 17 passages by turbidity based analysis; format: functional, organism-based
Cell membrane [11] = assay: Induction of cell membrane disruption in Escherichia coli assessed as increase in fluorescence intensity at 1 times MIC measured after 60 mins by PI staining based flow cytometric analysis (reference value: 0.1%); format: subcellular
Escherichia coli [12] = assay: Antibacterial activity against Escherichia coli ATCC 8739 infected in C57BL/6 mouse peritonitis sepsis model assessed as bacterial load in lung at 10 mg/kg, ip administered for 12 hrs (reference value: 5.47 +/-0.73 logCFU/gm); format: functional
Cell membrane [13] = assay: Induction of cytoplasmic membrane permeabilization in Escherichia coli at 0.06 to 8 times MIC measured for 10 mins by propidium iodide dye based fluorescence assay
L02 [14] = assay: Cytotoxicity against human L02 cells assessed as reduction in cell viability at >10 uM incubated for 24 hrs by CCK8 assay; format: cell-based; settings: l02, 24 h
Escherichia coli [15] = assay: Antibacterial activity against Escherichia coli ATCC 8739 infected in C57BL/6 mouse peritonitis sepsis model assessed as clear boundaries between hepatic cell cords in liver at 10 mg/kg, ip administered for 12 hrs by Hematoxylin-Eosin staining based microscopic analysis; format: functional, organism-based
Cell membrane [16] = assay: Induction of cytoplasmic membrane permeabilization in Escherichia coli at 0.06 to 8 times MIC measured for 60 mins by propidium iodide dye based fluorescence assay
Lipopolysaccharide (LPS) = assay: Displacement of dansyl-polymyxinB from LPS (unknown origin) assessed as decrease in fluorescence intensity by fluorescence spectrophotometric analysis
Cell membrane [17] = assay: Induction of cytoplasmic membrane permeabilization in Staphylococcus aureus at 0.06 to 8 times MIC measured for 10 mins by propidium iodide dye based fluorescence assay
[18] = Stability of the compound in human serum at 100 uM measured after 24 hrs by RP-HPLC analysis; format: ADME, cell-free
Escherichia coli [19] = assay: Antibacterial activity against Escherichia coli ATCC 8739 infected in C57BL/6 mouse peritonitis sepsis model assessed as glomerulus and renal tubules with normal shape in kidney at 10 mg/kg, ip administered for 12 hrs by Hematoxylin-Eosin staining based microscopic analysis; format: functional, organism-based
Cell membrane [20] = assay: Induction of cytoplasmic membrane depolarization in Escherichia coli assessed as increase in fluorescence intensity a 1XMIC by DiSC3-5 dye based fluorescence method
Cell membrane [21] = assay: Induction of outer membrane permeabilization to NPN in Escherichia coli ATCC 8739 cells assessed as increase in fluorescence intensity by NPN-probe based fluorescence spectrophotometric analysis; format: subcellular
Enterococcus faecalis = assay: Antibacterial activity against Enterococcus faecalis ATCC 29212 assessed as inhibition of bacterial growth measured after 24 hrs by turbidity based analysis; format: functional
Cell membrane [22] = assay: Induction of cytoplasmic membrane depolarization in Staphylococcus aureus assessed as increase in fluorescence intensity a 1XMIC by DiSC3-5 dye based fluorescence method
Cell membrane [23] = assay: Induction of cell membrane disruption in Escherichia coli assessed as wrinkled cells at 20 uM incubated for 1 hr by scanning electron microscopy
[24] = Hemolytic activity in human RBC assessed as induction of cell lysis measured after 30 mins by microtiter plate method; format: cell-based, Erythrocyte; settings: human red blood cells (erythrocytes)
Cell membrane [25] = assay: Induction of cytoplasmic membrane permeabilization in Escherichia coli assessed as increase in red fluorescence intensity at 2 times MIC measured after 60 mins by fluorescence microscopy; format: subcellular
Escherichia coli [26] = assay: Antibacterial activity against Escherichia coli ATCC 8739 infected in C57BL/6 mouse peritonitis sepsis model assessed as reduction in inflammatory cell infiltration in spleen at 10 mg/kg, ip administered for 12 hrs by Hematoxylin-Eosin staining based microscopic analysis; format: functional, organism-based
Cell membrane [27] = assay: Induction of cell membrane disruption in Escherichia coli assessed as increase in fluorescence intensity at 4 times MIC measured after 60 mins by PI staining based flow cytometric analysis (reference value: 0.1%); format: subcellular
Acinetobacter baumannii = assay: Antibacterial activity against Acinetobacter baumannii ATCC 19606 assessed as inhibition of bacterial growth measured after 24 hrs by turbidity based analysis; format: functional; settings: ATCC 19606 = CIP 70.34 = JCM 6841
Escherichia coli [28] = assay: Antibacterial activity against Escherichia coli ATCC 8739 infected in C57BL/6 mouse peritonitis sepsis model assessed as reduction in inflammatory cell infiltration in liver at 10 mg/kg, ip administered for 12 hrs by Hematoxylin-Eosin staining based microscopic analysis; format: functional, organism-based
Escherichia coli [29] = assay: Antibacterial activity against Escherichia coli ATCC 8739 infected in C57BL/6 mouse peritonitis sepsis model assessed as clear boundaries between white and red pulps in spleen at 10 mg/kg, ip administered for 12 hrs by Hematoxylin-Eosin staining based microscopic analysis; format: functional, organism-based
Staphylococcus aureus [30] = assay: Bactericidal activity against Staphylococcus aureus assessed as decrease in cell survival at 1XMIC measured after 24 hrs by colony counting assay; format: functional, organism-based
Lipid bilayer [31] = assay: Binding affinity to bacterial inner membrane mimic DOPE/DOPG (3:1) large unilamellar vesicles assessed as calcein leakage measured after 30 mins fluorescence based assay
Cell membrane [32] = assay: Induction of cell membrane disruption in Staphylococcus aureus assessed as cell morphological damage at 20 uM incubated for 1 hr by scanning electron microscopy; format: subcellular
Escherichia coli [33] = assay: Antibacterial activity against Escherichia coli ATCC 8739 assessed as inhibition of bacterial growth measured after 17 passages by turbidity based analysis; format: functional, organism-based
Escherichia coli [34] = assay: Antibacterial activity against Escherichia coli ATCC 8739 infected in C57BL/6 mouse peritonitis sepsis model assessed as bacterial load in liver at 10 mg/kg, ip administered for 12 hrs (reference value: 5.7 +/-0.35 logCFU/gm); format: functional
Escherichia coli [35] = assay: Bactericidal activity against Escherichia coli assessed as decrease in cell survival at 1XMIC measured after 24 hrs by colony counting assay; format: functional, organism-based
Escherichia coli [36] = assay: Antibacterial activity against Escherichia coli ATCC 8739 infected in C57BL/6 mouse peritonitis sepsis model assessed as bacterial load in spleen at 10 mg/kg, ip administered for 12 hrs (reference value: 6.01 +/-0.59 logCFU/gm); format: functional
Pseudomonas aeruginosa = assay: Antibacterial activity against Pseudomonas aeruginosa ATCC 27853 assessed as inhibition of bacterial growth measured after 24 hrs by turbidity based analysis; format: functional
Escherichia coli [37] = assay: Antibacterial activity against Escherichia coli ATCC 8739 infected in C57BL/6 mouse peritonitis sepsis model assessed as reduction in inflammatory cell infiltration in kidney at 10 mg/kg, ip administered for 12 hrs by Hematoxylin-Eosin staining based microscopic analysis; format: functional, organism-based
Cell membrane [38] = assay: Induction of cell membrane disruption in Escherichia coli assessed as increase in fluorescence intensity at 2 times MIC measured after 60 mins by PI staining based flow cytometric analysis (reference value: 0.1%); format: subcellular
Cell membrane [39] = assay: Induction of cytoplasmic membrane permeabilization in Staphylococcus aureus at 1 times MIC measured for 10 mins by propidium iodide dye based fluorescence assay
Cell membrane [40] = assay: Induction of cytoplasmic membrane permeabilization in Escherichia coli at 1 times MIC measured for 10 mins by propidium iodide dye based fluorescence assay; format: subcellular
L02 [41] = assay: Cytotoxicity against human L02 cells assessed as reduction in cell viability at 5 uM incubated for 24 hrs by CCK8 assay; format: cell-based; settings: l02, 24 h
Cell membrane [42] = assay: Induction of cytoplasmic membrane permeabilization in Staphylococcus aureus at 0.5 times MIC measured for 10 mins by propidium iodide dye based fluorescence assay; format: subcellular
Cell membrane [43] = assay: Induction of cytoplasmic membrane permeabilization in Escherichia coli at 0.5 times MIC measured for 10 mins by propidium iodide dye based fluorescence assay; format: subcellular
Escherichia coli [44] = assay: Bactericidal activity against Escherichia coli assessed as decrease in cell survival at 0.5XMIC measured after 24 hrs by colony counting assay; format: functional, organism-based
Staphylococcus aureus [45] = assay: Bactericidal activity against Staphylococcus aureus assessed as decrease in cell survival at 0.5XMIC measured after 24 hrs by colony counting assay; format: functional, organism-based

CC(C)C[C@@H]1NC(=O)[C@H](CCCN)NC(=O)[C@H](CCCN)NC(=O)[C@H](CCCN)NC(=O)[C@H](CCCN)NC(=O)[C@H](CCCN)NC(=O)[C@@H](Cc2ccccc2)NC(=O)[C@H](Cc2ccccc2)NC(=O)[C@@H]2CCCN2C(=O)[C@@H](Cc2ccccc2)NC1=O
Activity (Cell membrane [1]): Active
Activity (Lipid bilayer [2]): inactive
MIC (Staphylococcus aureus [3]): 10 µM (≈ 12.2 µg/mL)
Activity (Cell membrane [4]): Active
MIC (Escherichia coli [5]): 5 µM (≈ 6.11 µg/mL)
Activity (Escherichia coli [6]): 3.48 log10CFU/g
Activity (Escherichia coli [7]): Active
Activity (Escherichia coli [8]): Active
MIC (Staphylococcus aureus [9]): 5 µM (≈ 6.11 µg/mL)
Activity (Staphylococcus aureus [10]): Active
Activity (Cell membrane [11]): 42.7%
Activity (Escherichia coli [12]): 3.15 log10CFU/g
Activity (Cell membrane [13]): inactive
Activity (L02 [14]): Toxic
Activity (Escherichia coli [15]): Active
Activity (Cell membrane [16]): Active
Activity (Lipopolysaccharide (LPS)): Active
Activity (Cell membrane [17]): inactive
Stabilty [18]: Stable
Activity (Escherichia coli [19]): Active
Activity (Cell membrane [20]): Active
Activity (Cell membrane [21]): Active
MIC (Enterococcus faecalis): 5 µM (≈ 6.11 µg/mL)
Activity (Cell membrane [22]): Active
Activity (Cell membrane [23]): Active
HC50 at 0.5 h [24]: > 400 µM
Activity (Cell membrane [25]): Active
Activity (Escherichia coli [26]): Active
Activity (Cell membrane [27]): 91.8%
MIC (Acinetobacter baumannii): 10 µM (≈ 12.2 µg/mL)
Activity (Escherichia coli [28]): Active
Activity (Escherichia coli [29]): Active
Activity (Staphylococcus aureus [30]): Active
Activity (Lipid bilayer [31]): Active
Activity (Cell membrane [32]): Active
Activity (Escherichia coli [33]): Active
Activity (Escherichia coli [34]): 2.49 log10CFU/g
Activity (Escherichia coli [35]): Active
Activity (Escherichia coli [36]): 4.25 log10CFU/g
MIC (Pseudomonas aeruginosa): 10 µM (≈ 12.2 µg/mL)
Activity (Escherichia coli [37]): Active
Activity (Cell membrane [38]): 78.3%

CC(C)C[C@@H]1NC(=O)[C@H](CCCN)NC(=O)[C@H](C(C)C)NC(=O)[C@H](Cc2ccc(O)cc2)NC(=O)[C@H](CCC(N)=O)NC(=O)[C@H](CC(N)=O)NC(=O)[C@@H](Cc2ccccc2)NC(=O)[C@H](Cc2ccccc2)NC(=O)[C@@H]2CCCN2C(=O)[C@@H](Cc2ccccc2)NC1=O [TYROCIDINE A] (cyclo(F[dF]NQYV[Orn]L[dF]P))
Activity (Lipid bilayer [2]): Active
Activity (Cell membrane [39]): Active
MIC (Staphylococcus aureus [3]): 20 µM (≈ 25.4 µg/mL)
MIC (Escherichia coli [5]): 20 µM (≈ 25.4 µg/mL)
MIC (Staphylococcus aureus [9]): 2.5 µM (≈ 3.18 µg/mL)
Activity (Cell membrane [40]): Active
Activity (L02 [41]): Toxic
Activity (Lipopolysaccharide (LPS)): Active
Activity (Cell membrane [42]): Active
Activity (Cell membrane [20]): Active
Activity (Cell membrane [21]): Active
MIC (Enterococcus faecalis): 2.5 µM (≈ 3.18 µg/mL)
Activity (Cell membrane [22]): Active
HC50 at 0.5 h [24]: 14 µM
Activity (Cell membrane [43]): Active
MIC (Acinetobacter baumannii): 10 µM (≈ 12.7 µg/mL)
Activity (Escherichia coli [44]): inactive
Activity (Lipid bilayer [31]): Active
Activity (Staphylococcus aureus [45]): inactive
MIC (Pseudomonas aeruginosa): 80 µM (≈ 102 µg/mL)
